Source: patent publication US20150051206A1, “COMPOUNDS AND COMPOSITIONS AS C-KIT KINASE INHIBITORS” (IRM LLC, priority 2011, published 2015)
One block for each molecule: values may come before it.

Molecular target: T1, c-kit (Homo sapiens, UniProt P10721)
T1 construct: human Mo7e cells which endogenously express c-kit; endogenous in cells; host or cells: human Mo7e cells (promegakaryocytic leukemia line), stimulated with human recombinant SCF
Experiment: Mo7e cell proliferation assay (SCF dependent proliferation)
Assay type: cell-based
Settings: Mo7e cells stimulated with human recombinant SCF, 48 hours
Method: Compounds of Formula (I) and Formula (II) provided herein were assayed to measure their capacity to inhibit c-kit and PDGFR kinases using the appropriate assay described below: c-Kit inhibition was evaluated using the Mo7e cell proliferation assay, and PDGFR inhibition was evaluated using the Rat A10 cell proliferation assay and the Human TG/HA-VSMC cell proliferation assay.
The compounds of Table 1 and Table 2 were tested for inhibition of SCF dependent proliferation using human Mo7e cells which endogenously express c-kit in a 384 well format. […] After 48 hours of incubation at 37° C., cell viability was measured by adding 25 uL of CellTiter Glo (Promega) to the cells and the luminescence was measured by a CLIPR CCD camera (Molecular Devices).
The IC50 value is given as that concentration of the test compound in question that provoke a response halfway between the baseline and maximum responses.

[1] = Table 2, 20% FBS instead of 1% FBS (values marked *)
[2] = Table 1, 20% FBS (values marked *)

T1 sequence (P10721 26-976): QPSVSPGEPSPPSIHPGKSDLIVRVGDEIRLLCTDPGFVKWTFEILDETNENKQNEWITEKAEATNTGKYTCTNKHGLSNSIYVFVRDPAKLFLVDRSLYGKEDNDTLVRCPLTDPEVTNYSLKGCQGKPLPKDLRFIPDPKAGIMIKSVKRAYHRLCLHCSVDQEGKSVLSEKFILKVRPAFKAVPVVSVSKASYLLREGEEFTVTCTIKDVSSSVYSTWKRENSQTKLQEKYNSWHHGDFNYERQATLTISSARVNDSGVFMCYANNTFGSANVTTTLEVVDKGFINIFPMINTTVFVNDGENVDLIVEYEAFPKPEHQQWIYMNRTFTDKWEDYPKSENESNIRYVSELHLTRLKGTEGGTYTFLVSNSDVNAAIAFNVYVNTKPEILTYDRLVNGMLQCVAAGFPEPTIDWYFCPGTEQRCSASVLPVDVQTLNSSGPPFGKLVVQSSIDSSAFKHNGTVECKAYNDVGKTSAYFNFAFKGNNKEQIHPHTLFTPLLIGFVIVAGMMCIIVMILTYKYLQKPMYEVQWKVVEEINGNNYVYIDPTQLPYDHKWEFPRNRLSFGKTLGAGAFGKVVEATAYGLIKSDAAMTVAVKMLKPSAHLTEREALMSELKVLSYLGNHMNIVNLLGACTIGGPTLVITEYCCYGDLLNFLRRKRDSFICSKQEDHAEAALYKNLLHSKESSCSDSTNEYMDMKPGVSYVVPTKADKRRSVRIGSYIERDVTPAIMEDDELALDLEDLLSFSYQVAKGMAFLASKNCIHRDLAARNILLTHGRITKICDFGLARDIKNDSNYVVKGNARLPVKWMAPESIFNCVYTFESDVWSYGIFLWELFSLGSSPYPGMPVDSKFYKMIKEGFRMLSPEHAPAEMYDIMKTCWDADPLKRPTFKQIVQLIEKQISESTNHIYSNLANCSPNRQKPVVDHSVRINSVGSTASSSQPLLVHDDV

Structure (SMILES): Cc1ccc(-c2noc(-c3cccc(N4CCN(C)CC4)c3)n2)cc1NC(=O)c1cnc2ccccn12 [F53, N-(2-methyl-5-{5-[3-(4-methylpiperazin-1-yl)phenyl]-1,2,4-oxadiazol-3-yl}phenyl)imidazo[1,2-a]pyridine-3-carboxamide]
IC50 (Table 2, 1% FBS): 101 nM

Structure (SMILES): Cc1ccc(Nc2noc(-c3cccnn3)n2)cc1NC(=O)c1cnc2ccccn12 [F64, N-(2-methyl-5-{[5-(pyridazin-3-yl)-1,2,4-oxadiazol-3-yl]amino}phenyl)imidazo[1,2-a]pyridine-3-carboxamide]
IC50 (Table 2, 1% FBS): 115 nM

Structure (SMILES): Cc1ccc(-c2noc(-c3ccccn3)n2)cc1NC(=O)c1cnc2ccccn12 [F42, N-{2-methyl-5-[5-(pyridin-2-yl)-1,2,4-oxadiazol-3-yl]phenyl}imidazo[1,2-a]pyridine-3-carboxamide]
IC50 (Table 2, 1% FBS): 105 nM

Structure (SMILES): Cc1ccc(-c2nc(COc3ccccc3)no2)cc1NC(=O)c1cnc2ccccn12 [F32, N-{2-methyl-5-[3-(phenoxymethyl)-1,2,4-oxadiazol-5-yl]phenyl}imidazo[1,2-a]pyridine-3-carboxamide]
IC50 [1]: 249 nM

Structure (SMILES): Cc1ccc(Nc2noc(-c3ccccc3)n2)cc1NC(=O)c1cnc2ccccn12 [F20, N-{2-methyl-5-[(5-phenyl-1,2,4-oxadiazol-3-yl)amino]phenyl}imidazo[1,2-a]pyridine-3-carboxamide]
IC50 (Table 1, 1% FBS): 10 nM

Structure (SMILES): Cc1ccc(Nc2noc(-c3cccc(N4CCOCC4)c3)n2)cc1NC(=O)c1cnc2ccccn12 [F14, N-[2-methyl-5-({5-[3-(morpholin-4-yl)phenyl]-1,2,4-oxadiazol-3-yl}amino)phenyl]imidazo[1,2-a]pyridine-3-carboxamide]
IC50 (Table 1, 1% FBS): 29 nM

Structure (SMILES): Cc1ccc(-c2nc(Nc3ccccc3)no2)cc1NC(=O)c1cnc2ccccn12 [F1, N-(2-methyl-5-(3-(phenylamino)-1,2,4-oxadiazol-5-yl)phenyl)imidazo[1,2-a]pyridine-3-carboxamide]
IC50 (Table 1, 1% FBS): 51 nM

Structure (SMILES): Cc1ccc(-c2noc(CCn3ccnc3)n2)cc1NC(=O)c1cnc2ccccn12 [F57, N-(5-{5-[2-(1H-imidazol-1-yl)ethyl]-1,2,4-oxadiazol-3-yl}-2-methylphenyl)imidazo[1,2-a]pyridine-3-carboxamide]
IC50 (Table 2, 1% FBS): 337 nM

Structure (SMILES): Cc1ccnc(-c2noc(-c3ccc(C)c(NC(=O)c4cnc5ccccn45)c3)n2)c1 [F10, N-{2-methyl-5-[3-(4-methylpyridin-2-yl)-1,2,4-oxadiazol-5-yl]phenyl}imidazo[1,2-a]pyridine-3-carboxamide]
IC50 (Table 1, 1% FBS): 24 nM

Structure (SMILES): Cc1ccc(-c2noc(Cn3ccnc3)n2)cc1NC(=O)c1cnc2ccccn12 [F61, N-{5-[5-(1H-imidazol-1-ylmethyl)-1,2,4-oxadiazol-3-yl]-2-methylphenyl}imidazo[1,2-a]pyridine-3-carboxamide]
IC50 (Table 2, 1% FBS): 280 nM

Structure (SMILES): Cc1ccc(Nc2noc(-c3ccnc(N4CCOCC4)c3)n2)cc1NC(=O)c1cnc2ccccn12 [F12, N-[2-methyl-5-({5-[2-(morpholin-4-yl)pyridin-4-yl]-1,2,4-oxadiazol-3-yl}amino)phenyl]imidazo[1,2-a]pyridine-3-carboxamide]
IC50 (Table 1, 1% FBS): 40 nM

Structure (SMILES): Cc1ccc(-c2noc(CCc3nccn3C)n2)cc1NC(=O)c1cnc2ccccn12 [F56, N-(2-methyl-5-{5-[2-(1-methyl-1H-imidazol-2-yl)ethyl]-1,2,4-oxadiazol-3-yl}phenyl)imidazo[1,2-a]pyridine-3-carboxamide]
IC50 (Table 2, 1% FBS): 340 nM

Structure (SMILES): Cc1ccc(-c2nc(-c3cccc(OC(F)(F)F)c3)no2)cc1NC(=O)c1cnc2ccccn12 [F6, N-(2-methyl-5-{3-[3-(trifluoromethoxy)phenyl]-1,2,4-oxadiazol-5-yl}phenyl)imidazo[1,2-a]pyridine-3-carboxamide]
IC50 (Table 1, 1% FBS): 89 nM

Structure (SMILES): Cc1ccc(Nc2noc(-c3cccc(N4CCN(C)CC4)c3)n2)cc1NC(=O)c1cnc2ccccn12 [F13, N-[2-methyl-5-({5-[3-(4-methylpiperazin-1-yl)phenyl]-1,2,4-oxadiazol-3-yl}amino)phenyl]imidazo[1,2-a]pyridine-3-carboxamide]
IC50 (Table 1, 1% FBS): 71 nM

Structure (SMILES): Cc1ccc(-c2noc(-c3ccc(N4CCOCC4)cc3)n2)cc1NC(=O)c1cnc2ccccn12 [F65, N-(2-methyl-5-{5-[4-(morpholin-4-yl)phenyl]-1,2,4-oxadiazol-3-yl}phenyl)imidazo[1,2-a]pyridine-3-carboxamide]
IC50 (Table 2, 1% FBS): 1080 nM

Structure (SMILES): Cc1ccc(-c2noc(CCn3cncn3)n2)cc1NC(=O)c1cnc2ccccn12 [F58, N-(2-methyl-5-{5-[2-(1H-1,2,4-triazol-1-yl)ethyl]-1,2,4-oxadiazol-3-yl}phenyl)imidazo[1,2-a]pyridine-3-carboxamide]
IC50 (Table 2, 1% FBS): 135 nM

Second part, the molecule after the results:

IC50 (Table 2, 1% FBS): > 10000 nM
Structure (SMILES): Cc1ccc(-c2nc(-c3ccc(F)cc3)no2)cc1NC(=O)c1cnc2ccccn12 [F68]

IC50 [2]: 23 nM
Structure (SMILES): Cc1ccc(-c2nc(-c3cnccc3C(F)(F)F)no2)cc1NC(=O)c1cnc2ccccn12 [F4, N-(2-methyl-5-{3-[4-(trifluoromethyl)pyridin-3-yl]-1,2,4-oxadiazol-5-yl}phenyl)imidazo[1,2-a]pyridine-3-carboxamide]

IC50 [1]: 196 nM
Structure (SMILES): Cc1ccc(-c2noc(-c3ccccc3)n2)cc1NC(=O)c1cnc2ccccn12 [F47, N-[2-methyl-5-(5-phenyl-1,2,4-oxadiazol-3-yl)phenyl]imidazo[1,2-a]pyridine-3-carboxamide]

IC50 [1]: 359 nM
Structure (SMILES): Cc1ccc(-c2nc(-c3ccc(C(F)(F)F)cn3)no2)cc1NC(=O)c1cnc2ccccn12 [F30, N-(2-methyl-5-{3-[5-(trifluoromethyl)pyridin-2-yl]-1,2,4-oxadiazol-5-yl}phenyl)imidazo[1,2-a]pyridine-3-carboxamide]

IC50 (Table 2, 1% FBS): 1040 nM
Structure (SMILES): Cc1ccc(-c2nc(-c3ccc(C(F)(F)F)cc3)no2)cc1NC(=O)c1cnc2ccccn12 [F31, N-(2-methyl-5-{3-[4-(trifluoromethyl)phenyl]-1,2,4-oxadiazol-5-yl}phenyl)imidazo[1,2-a]pyridine-3-carboxamide]

IC50 [2]: 66 nM
Structure (SMILES): CCOc1cccc(-c2noc(-c3ccc(C)c(NC(=O)c4cnc5ccccn45)c3)n2)c1 [F8, N-{5-[3-(3-ethoxyphenyl)-1,2,4-oxadiazol-5-yl]-2-methylphenyl}imidazo[1,2-a]pyridine-3-carboxamide]

IC50 [1]: 205 nM
Structure (SMILES): Cc1ccc(-c2nc(-c3ncccc3F)no2)cc1NC(=O)c1cnc2ccccn12 [F29, N-{5-[3-(3-fluoropyridin-2-yl)-1,2,4-oxadiazol-5-yl]-2-methylphenyl}imidazo[1,2-a]pyridine-3-carboxamide]

IC50 (Table 1, 1% FBS): 9 nM
Structure (SMILES): Cc1ccc(-c2nc(Cc3ccccc3F)no2)cc1NC(=O)c1cnc2ccccn12 [F9, N-(5-{3-[(2-fluorophenyl)methyl]-1,2,4-oxadiazol-5-yl}-2-methylphenyl)imidazo[1,2-a]pyridine-3-carboxamide]

IC50 (Table 2, 1% FBS): > 10000 nM
Structure (SMILES): Cc1ccc(-c2noc(-c3ccc(C)c(NC(=O)c4cnc5ccccn45)c3)n2)cc1F [F69]

IC50 [1]: 815 nM
Structure (SMILES): Cc1ccc(-c2noc(-c3ncccn3)n2)cc1NC(=O)c1cnc2ccccn12 [F48, N-{2-methyl-5-[5-(pyrimidin-2-yl)-1,2,4-oxadiazol-3-yl]phenyl}imidazo[1,2-a]pyridine-3-carboxamide]

IC50 [1]: 192 nM
Structure (SMILES): Cc1ccc(-c2nc(-c3cccnc3OCC(F)(F)F)no2)cc1NC(=O)c1cnc2ccccn12 [F38, N-(2-methyl-5-{3-[2-(2,2,2-trifluoroethoxy)pyridin-3-yl]-1,2,4-oxadiazol-5-yl}phenyl)imidazo[1,2-a]pyridine-3-carboxamide]
